The values below come from the NIST ThermoML archive (doi:10.1016/j.jct.2013.04.015).

Numbers after ± are expanded uncertainties.

The conditions of the data set: for surface tension liquid-gas: Wilhelmy plate method; for mass density: 101 kPa, Liquid, Vibrating tube method.

As a reminder, the surface tension liquid-gas is the force per length acting along the surface. In general, mass density refers to mass per unit of volume.

Regarding `CCCCn1cc[n+](C)c1.C[C@H](O)C(=O)[O-]` [1-butyl-3-methylimidazolium L-lactate], the surface tension liquid-gas (293.15 K) worked out at 43.14 ± 0.37 mN/m; the surface tension liquid-gas (298.15 K) worked out at 42.92 ± 0.37 mN/m; the surface tension liquid-gas (303.15 K) is 42.79 ± 0.37 mN/m; the surface tension liquid-gas (308.15 K) was 42.37 ± 0.37 mN/m; the surface tension liquid-gas (313.15 K) was 42.19 ± 0.37 mN/m; the surface tension liquid-gas (318.15 K) turned out to be 42.01 ± 0.37 mN/m. The surface tension liquid-gas (323.15 K) was 41.64 ± 0.37 mN/m, the surface tension liquid-gas (333.15 K) worked out at 41.04 ± 0.36 mN/m and the surface tension liquid-gas (343.15 K) is listed as 40.56 ± 0.36 mN/m. Also, the mass density by setting is: (293.15 K) 1115.3 ± 0.5 kg/m3; (298.15 K) 1111.2 ± 0.5 kg/m3; (303.15 K) 1107.5 ± 0.5 kg/m3; (308.15 K) 1104.2 ± 0.5 kg/m3; (313.15 K) 1100.5 ± 0.5 kg/m3; (318.15 K) 1097.7 ± 0.5 kg/m3. The mass density by setting is: (323.15 K) 1094.1 ± 0.5 kg/m3; (333.15 K) 1086.1 ± 0.5 kg/m3; (343.15 K) 1079.8 ± 0.5 kg/m3.

Take `CCCCO` [butan-1-ol]: the surface tension liquid-gas (298.15 K) amounted to 23.89 ± 0.3 mN/m, the surface tension liquid-gas (308.15 K) was 23.46 ± 0.3 mN/m and the surface tension liquid-gas (318.15 K) came out at 22.62 ± 0.3 mN/m. Besides, the mass density reads like this: (298.15 K) 805.7 ± 0.4 kg/m3; (308.15 K) 798 ± 0.4 kg/m3; (318.15 K) 790.1 ± 0.4 kg/m3.

As for `CCO` [ethanol], the surface tension liquid-gas came out at 22.11 ± 0.31 mN/m (298.15 K), 21.13 ± 0.3 mN/m (308.15 K) and 20.48 ± 0.3 mN/m (318.15 K). Moreover, the mass density is, setting by setting: (298.15 K) 784.7 ± 0.4 kg/m3; (308.15 K) 776.2 ± 0.4 kg/m3; (318.15 K) 767 ± 0.4 kg/m3.

Consider `CO` [methanol], for which the surface tension liquid-gas (298.15 K) is recorded as 22.22 ± 0.31 mN/m, the surface tension liquid-gas (308.15 K) is 21.46 ± 0.3 mN/m and the surface tension liquid-gas (318.15 K) stood at 20.46 ± 0.3 mN/m. In addition, the mass density by setting is: (298.15 K) 786.4 ± 0.4 kg/m3; (308.15 K) 776.9 ± 0.4 kg/m3; (318.15 K) 767.2 ± 0.4 kg/m3.

With `O` [water], the surface tension liquid-gas (298.15 K) amounted to 71.85 ± 0.78 mN/m, the surface tension liquid-gas (308.15 K) came to 70.48 ± 0.77 mN/m and the surface tension liquid-gas (318.15 K) amounted to 68.89 ± 0.75 mN/m. The mass density (308.15 K) is given as 994.1 ± 0.9 kg/m3.
